According to the kinase profiling compilation of Christmann-Franck et al. (2016):

What was measured:
Test in all cases: Caliper, Mobility shift assay off-chip
BRSK1 (human) = BRSK1 (human) (UniProt Q8TDC3)
CAMK2D (human) = CAMK2D (human) (UniProt Q13557)
CDK3 CCNE1 (human) = CDK3 CCNE1 (human) (UniProt P24864+Q00526)
CHEK2 (human) = CHEK2 (human) (UniProt O96017)
CHUK (human) = CHUK (human) (UniProt O15111)
CSF1R (human) = CSF1R (human) (UniProt P07333)
CSNK1D (human) = CSNK1D (human) (UniProt P48730)
CSNK1G1 (human) = CSNK1G1 (human) (UniProt Q9HCP0)
DDR2 (human) = DDR2 (human) (UniProt Q16832)
[1] = tested on: EGFR (human), P00533 [T790M/L858R]
ERBB4 (human) = ERBB4 (human) (UniProt Q15303)
FRK (human) = FRK (human) (UniProt P42685)
GCK (human) = GCK (human) (UniProt Q12851)
HCK (human) = HCK (human) (UniProt P08631)
HIPK3 (human) = HIPK3 (human) (UniProt Q9H422)
INSR (human) = INSR (human) (UniProt P06213)
ITK (human) = ITK (human) (UniProt Q08881)
JAK3 JH1 JH2 (human) = JAK3 JH1 JH2 (human) (UniProt P52333)
[2] = tested on: KIT (human), P10721 [D816V]
[3] = tested on: KIT (human), P10721 [V560G]
[4] = tested on: KIT (human), P10721 [V654A]
LCK (human) = LCK (human) (UniProt P06239)
LIMK1 (human) = LIMK1 (human) (UniProt P53667)
LYN (human) = LYN (human) (UniProt P07948)
MUSK (human) = MUSK (human) (UniProt O15146)
PAK3 (human) = PAK3 (human) (UniProt O75914)
[5] = tested on: PDGFRA (human), P16234 [V561D]
PRKCQ (human) = PRKCQ (human) (UniProt Q04759)
PRKX (human) = PRKX (human) (UniProt P51817)
PTK6 (human) = PTK6 (human) (UniProt Q13882)
RPS6KA6 KD1 KD2 (human) = RPS6KA6 KD1 KD2 (human) (UniProt Q9UK32)
SGK2 (human) = SGK2 (human) (UniProt Q9HBY8)
SRPK1 (human) = SRPK1 (human) (UniProt Q96SB4)
SRPK2 (human) = SRPK2 (human) (UniProt P78362)
SRPK3 (human) = SRPK3 (human) (UniProt Q9UPE1)
STK11 (human) = STK11 (human) (UniProt Q15831)
STK33 (human) = STK33 (human) (UniProt Q9BYT3)
TAOK3 (human) = TAOK3 (human) (UniProt Q9H2K8)
TSSK2 (human) = TSSK2 (human) (UniProt Q96PF2)
VRK2 (human) = VRK2 (human) (UniProt Q86Y07)
YES1 (human) = YES1 (human) (UniProt P07947)
Sequence of YES1 (human) (P07947 whole entry, looked up): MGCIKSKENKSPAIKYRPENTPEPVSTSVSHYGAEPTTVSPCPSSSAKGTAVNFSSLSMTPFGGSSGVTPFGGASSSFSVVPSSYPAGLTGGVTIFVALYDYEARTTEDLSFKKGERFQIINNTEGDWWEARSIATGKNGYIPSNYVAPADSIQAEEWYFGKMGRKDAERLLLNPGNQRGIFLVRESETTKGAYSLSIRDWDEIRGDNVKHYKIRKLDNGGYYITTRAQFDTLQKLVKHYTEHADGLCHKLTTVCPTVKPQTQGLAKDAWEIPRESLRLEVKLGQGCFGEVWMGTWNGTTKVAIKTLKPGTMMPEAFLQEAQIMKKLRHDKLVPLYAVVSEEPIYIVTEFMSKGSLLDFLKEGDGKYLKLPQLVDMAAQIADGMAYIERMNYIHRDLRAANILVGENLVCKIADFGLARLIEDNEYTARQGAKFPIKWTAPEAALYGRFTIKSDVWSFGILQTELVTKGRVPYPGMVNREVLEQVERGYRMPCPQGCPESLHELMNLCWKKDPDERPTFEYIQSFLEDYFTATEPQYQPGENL

Sequence of MUSK (human) (O15146 whole entry, looked up): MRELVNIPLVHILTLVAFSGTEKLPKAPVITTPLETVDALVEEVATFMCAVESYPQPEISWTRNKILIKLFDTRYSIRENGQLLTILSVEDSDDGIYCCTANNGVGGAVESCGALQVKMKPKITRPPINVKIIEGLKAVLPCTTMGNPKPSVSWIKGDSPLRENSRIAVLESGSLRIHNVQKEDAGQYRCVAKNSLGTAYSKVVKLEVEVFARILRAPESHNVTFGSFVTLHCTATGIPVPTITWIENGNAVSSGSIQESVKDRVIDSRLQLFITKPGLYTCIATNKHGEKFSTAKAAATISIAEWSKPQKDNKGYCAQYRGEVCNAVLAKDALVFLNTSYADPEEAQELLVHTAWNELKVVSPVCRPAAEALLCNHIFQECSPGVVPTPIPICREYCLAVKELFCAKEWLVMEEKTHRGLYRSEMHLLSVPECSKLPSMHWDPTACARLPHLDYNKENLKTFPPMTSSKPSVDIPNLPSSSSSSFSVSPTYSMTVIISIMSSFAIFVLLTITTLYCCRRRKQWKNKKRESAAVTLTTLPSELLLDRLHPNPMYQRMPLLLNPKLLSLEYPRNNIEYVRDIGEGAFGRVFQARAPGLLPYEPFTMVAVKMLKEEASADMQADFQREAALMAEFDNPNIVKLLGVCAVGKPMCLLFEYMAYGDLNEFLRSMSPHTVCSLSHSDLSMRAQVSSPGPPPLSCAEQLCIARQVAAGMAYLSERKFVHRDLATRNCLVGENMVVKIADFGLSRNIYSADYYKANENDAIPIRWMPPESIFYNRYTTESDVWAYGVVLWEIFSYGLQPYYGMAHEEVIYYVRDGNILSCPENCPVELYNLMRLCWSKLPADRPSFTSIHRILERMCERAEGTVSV
Sequence of CDK3 CCNE1 (human) (P24864 whole entry, looked up): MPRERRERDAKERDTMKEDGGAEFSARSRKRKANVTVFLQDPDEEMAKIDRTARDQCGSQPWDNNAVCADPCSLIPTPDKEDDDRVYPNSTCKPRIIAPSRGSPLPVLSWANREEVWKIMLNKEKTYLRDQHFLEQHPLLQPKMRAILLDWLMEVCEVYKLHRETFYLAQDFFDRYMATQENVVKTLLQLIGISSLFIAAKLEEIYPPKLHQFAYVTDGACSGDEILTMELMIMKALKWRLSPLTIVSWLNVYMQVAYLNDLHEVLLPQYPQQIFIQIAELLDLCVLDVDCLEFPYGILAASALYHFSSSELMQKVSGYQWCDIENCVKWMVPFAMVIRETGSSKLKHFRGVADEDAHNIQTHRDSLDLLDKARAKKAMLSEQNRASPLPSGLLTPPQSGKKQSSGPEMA
Sequence of CDK3 CCNE1 (human) (Q00526 whole entry, looked up): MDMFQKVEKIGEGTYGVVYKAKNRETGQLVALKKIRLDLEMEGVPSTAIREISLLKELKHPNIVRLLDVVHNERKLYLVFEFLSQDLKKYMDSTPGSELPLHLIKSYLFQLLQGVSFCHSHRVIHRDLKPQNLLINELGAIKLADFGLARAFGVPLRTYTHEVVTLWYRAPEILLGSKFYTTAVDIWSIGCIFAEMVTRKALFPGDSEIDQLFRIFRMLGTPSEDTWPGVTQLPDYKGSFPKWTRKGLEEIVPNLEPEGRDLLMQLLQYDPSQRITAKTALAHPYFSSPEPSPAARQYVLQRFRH
Sequence of SRPK2 (human) (P78362 whole entry, looked up): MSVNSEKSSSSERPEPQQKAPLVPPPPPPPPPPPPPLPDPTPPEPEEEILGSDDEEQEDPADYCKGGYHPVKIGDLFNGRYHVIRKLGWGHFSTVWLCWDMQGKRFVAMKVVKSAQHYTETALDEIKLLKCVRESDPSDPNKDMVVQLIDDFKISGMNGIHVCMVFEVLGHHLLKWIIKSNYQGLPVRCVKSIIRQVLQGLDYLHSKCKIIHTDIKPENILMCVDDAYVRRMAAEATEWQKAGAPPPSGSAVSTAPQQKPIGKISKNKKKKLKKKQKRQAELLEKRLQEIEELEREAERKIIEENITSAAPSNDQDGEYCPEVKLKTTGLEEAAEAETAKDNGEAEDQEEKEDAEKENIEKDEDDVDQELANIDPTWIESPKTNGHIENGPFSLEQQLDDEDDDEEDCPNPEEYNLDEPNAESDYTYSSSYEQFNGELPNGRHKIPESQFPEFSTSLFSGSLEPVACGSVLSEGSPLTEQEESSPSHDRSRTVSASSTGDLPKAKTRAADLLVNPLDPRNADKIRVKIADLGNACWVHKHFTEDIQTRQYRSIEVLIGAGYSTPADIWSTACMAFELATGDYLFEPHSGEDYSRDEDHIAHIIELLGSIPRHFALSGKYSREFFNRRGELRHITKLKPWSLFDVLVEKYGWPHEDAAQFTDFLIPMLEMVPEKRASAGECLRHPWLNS
Sequence of LCK (human) (P06239 whole entry, looked up): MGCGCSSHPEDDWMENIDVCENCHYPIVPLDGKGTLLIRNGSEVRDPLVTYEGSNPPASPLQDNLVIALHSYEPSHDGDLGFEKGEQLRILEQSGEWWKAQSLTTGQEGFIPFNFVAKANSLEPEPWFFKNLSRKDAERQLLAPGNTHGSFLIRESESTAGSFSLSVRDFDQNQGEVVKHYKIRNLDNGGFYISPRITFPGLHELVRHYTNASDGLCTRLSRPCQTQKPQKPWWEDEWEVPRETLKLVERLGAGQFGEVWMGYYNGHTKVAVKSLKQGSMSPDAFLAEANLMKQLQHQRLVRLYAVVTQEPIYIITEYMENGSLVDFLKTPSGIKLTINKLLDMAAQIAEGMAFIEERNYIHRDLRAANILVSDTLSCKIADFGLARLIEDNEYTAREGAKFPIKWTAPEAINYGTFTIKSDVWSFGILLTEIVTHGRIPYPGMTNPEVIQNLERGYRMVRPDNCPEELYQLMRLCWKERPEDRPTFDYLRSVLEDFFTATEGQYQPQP
Sequence of SGK2 (human) (Q9HBY8 whole entry, looked up): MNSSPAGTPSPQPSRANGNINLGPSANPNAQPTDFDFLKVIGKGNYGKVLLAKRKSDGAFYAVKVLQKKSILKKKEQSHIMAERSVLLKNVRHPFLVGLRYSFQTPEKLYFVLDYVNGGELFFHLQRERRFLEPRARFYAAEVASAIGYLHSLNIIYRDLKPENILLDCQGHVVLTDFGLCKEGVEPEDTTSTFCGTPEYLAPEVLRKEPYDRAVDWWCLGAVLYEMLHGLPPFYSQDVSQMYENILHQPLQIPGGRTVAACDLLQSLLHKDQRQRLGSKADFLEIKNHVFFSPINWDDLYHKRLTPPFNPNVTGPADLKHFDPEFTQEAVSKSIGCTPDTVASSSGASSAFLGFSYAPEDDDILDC
Sequence of CSNK1D (human) (P48730 whole entry, looked up): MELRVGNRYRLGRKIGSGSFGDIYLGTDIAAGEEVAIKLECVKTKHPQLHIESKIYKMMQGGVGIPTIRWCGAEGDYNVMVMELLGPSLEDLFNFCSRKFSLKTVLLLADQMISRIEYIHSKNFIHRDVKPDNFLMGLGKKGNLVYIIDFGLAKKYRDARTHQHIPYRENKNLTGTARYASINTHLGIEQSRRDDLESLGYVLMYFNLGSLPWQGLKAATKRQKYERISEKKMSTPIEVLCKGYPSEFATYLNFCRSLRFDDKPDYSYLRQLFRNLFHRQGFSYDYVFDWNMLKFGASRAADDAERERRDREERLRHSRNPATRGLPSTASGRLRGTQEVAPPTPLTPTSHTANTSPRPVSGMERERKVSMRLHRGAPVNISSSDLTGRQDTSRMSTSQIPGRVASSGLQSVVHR
Sequence of TAOK3 (human) (Q9H2K8 whole entry, looked up): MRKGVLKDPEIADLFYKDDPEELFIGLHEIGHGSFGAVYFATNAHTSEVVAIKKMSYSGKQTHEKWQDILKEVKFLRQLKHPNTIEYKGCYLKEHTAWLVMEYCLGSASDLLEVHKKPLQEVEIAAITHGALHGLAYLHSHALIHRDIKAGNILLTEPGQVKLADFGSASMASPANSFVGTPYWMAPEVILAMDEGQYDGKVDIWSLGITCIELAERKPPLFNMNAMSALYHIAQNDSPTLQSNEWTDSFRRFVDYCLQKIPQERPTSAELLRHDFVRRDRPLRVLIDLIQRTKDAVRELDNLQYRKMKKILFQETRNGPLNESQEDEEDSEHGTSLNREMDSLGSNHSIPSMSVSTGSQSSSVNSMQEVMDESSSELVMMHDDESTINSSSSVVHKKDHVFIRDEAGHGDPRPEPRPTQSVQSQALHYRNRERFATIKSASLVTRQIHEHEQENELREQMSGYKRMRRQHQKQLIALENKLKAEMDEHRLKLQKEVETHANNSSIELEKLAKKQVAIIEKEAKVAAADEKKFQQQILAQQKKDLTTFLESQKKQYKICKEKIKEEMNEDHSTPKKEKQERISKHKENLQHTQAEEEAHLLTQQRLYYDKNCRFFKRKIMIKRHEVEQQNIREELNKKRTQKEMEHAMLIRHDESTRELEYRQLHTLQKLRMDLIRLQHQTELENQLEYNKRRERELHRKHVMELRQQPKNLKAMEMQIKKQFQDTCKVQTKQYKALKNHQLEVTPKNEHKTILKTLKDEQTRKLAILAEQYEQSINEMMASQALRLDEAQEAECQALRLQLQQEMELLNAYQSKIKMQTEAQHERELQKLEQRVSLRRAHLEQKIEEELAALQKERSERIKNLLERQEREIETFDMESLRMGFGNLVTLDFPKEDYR

Molecule `COc1ccc(C#Cc2ccc3ncc4ncn(-c5ccc(CCN)cc5)c4c3c2)cc1` has a residual activity (BRSK1 (human); compound 10.0 µM) of 36%, a residual activity (CAMK2D (human); compound 10.0 µM) of 11% and a residual activity (CDK3 CCNE1 (human); compound 10.0 µM) of 84%. The residual activity (CHEK2 (human); compound 10.0 µM) was 5%, the residual activity (CHUK (human); compound 10.0 µM) was 36% and the residual activity (CSF1R (human); compound 10.0 µM) was 17%. The residual activity (CSNK1D (human); compound 10.0 µM) was 35%, the residual activity (CSNK1G1 (human); compound 10.0 µM) was 51% and the residual activity (DDR2 (human); compound 10.0 µM) was 57%. It also gave a residual activity ([1]; compound 10.0 µM) of 68%, a residual activity (ERBB4 (human); compound 10.0 µM) of 116% and a residual activity (FRK (human); compound 10.0 µM) of 90%. The residual activity (GCK (human); compound 10.0 µM) was 17%, the residual activity (HCK (human); compound 10.0 µM) was 63% and the residual activity (HIPK3 (human); compound 10.0 µM) was 90%. For the same molecule, the residual activity (INSR (human); compound 10.0 µM) was 95%, the residual activity (ITK (human); compound 10.0 µM) was 78% and the residual activity (JAK3 JH1 JH2 (human); compound 10.0 µM) was 55%. The residual activity ([2]; compound 10.0 µM) was 92%, the residual activity ([3]; compound 10.0 µM) was 18% and the residual activity ([4]; compound 10.0 µM) was 34%. The residual activity (LCK (human); compound 10.0 µM) was 65%, the residual activity (LIMK1 (human); compound 10.0 µM) was 38% and the residual activity (LYN (human); compound 10.0 µM) was 56%. The residual activity (MUSK (human); compound 10.0 µM) was 99%, the residual activity (PAK3 (human); compound 10.0 µM) was 38% and the residual activity ([5]; compound 10.0 µM) was 10%. For the same molecule, the residual activity (PRKCQ (human); compound 10.0 µM) was 57%, the residual activity (PRKX (human); compound 10.0 µM) was 91% and the residual activity (PTK6 (human); compound 10.0 µM) was 81%. For the same molecule, the residual activity (RPS6KA6 KD1 KD2 (human); compound 10.0 µM) was 15%, the residual activity (SGK2 (human); compound 10.0 µM) was 26% and the residual activity (SRPK1 (human); compound 10.0 µM) was 80%. The residual activity (SRPK2 (human); compound 10.0 µM) was 96%, the residual activity (SRPK3 (human); compound 10.0 µM) was 58% and the residual activity (STK11 (human); compound 10.0 µM) was 104%. It also gave a residual activity (STK33 (human); compound 10.0 µM) of 58%, a residual activity (TAOK3 (human); compound 10.0 µM) of 66% and a residual activity (TSSK2 (human); compound 10.0 µM) of 72%. For the same molecule, the residual activity (VRK2 (human); compound 10.0 µM) was 115% and the residual activity (YES1 (human); compound 10.0 µM) was 109%.

`C[C@@H](Nc1nc2c(C#CC3CC3)c[nH]c(=O)c2c2cc(-c3cn[nH]c3)ccc12)C(C)(C)C` was tested, and the residual activity (BRSK1 (human); compound 1.0 µM) was 29%, the residual activity (CAMK2D (human); compound 1.0 µM) was 25% and the residual activity (CDK3 CCNE1 (human); compound 1.0 µM) was 106%. The residual activity (CHEK2 (human); compound 1.0 µM) was 4%, the residual activity (CHUK (human); compound 1.0 µM) was 102% and the residual activity (CSF1R (human); compound 1.0 µM) was 10%. It also gave a residual activity (CSNK1D (human); compound 1.0 µM) of 105%, a residual activity (CSNK1G1 (human); compound 1.0 µM) of 97% and a residual activity (DDR2 (human); compound 1.0 µM) of 101%. The residual activity ([1]; compound 1.0 µM) was 12%, the residual activity (ERBB4 (human); compound 1.0 µM) was 102% and the residual activity (FRK (human); compound 1.0 µM) was 92%. It also gave a residual activity (GCK (human); compound 1.0 µM) of 44%, a residual activity (HCK (human); compound 1.0 µM) of 31% and a residual activity (HIPK3 (human); compound 1.0 µM) of 104%. For the same molecule, the residual activity (INSR (human); compound 1.0 µM) was 107%, the residual activity (ITK (human); compound 1.0 µM) was 113% and the residual activity (JAK3 JH1 JH2 (human); compound 1.0 µM) was 56%. It also gave a residual activity ([2]; compound 1.0 µM) of 93%, a residual activity ([3]; compound 1.0 µM) of 9% and a residual activity ([4]; compound 1.0 µM) of 46%. It also gave a residual activity (LCK (human); compound 1.0 µM) of 58%, a residual activity (LIMK1 (human); compound 1.0 µM) of 67% and a residual activity (LYN (human); compound 1.0 µM) of 72%. For the same molecule, the residual activity (MUSK (human); compound 1.0 µM) was 96%, the residual activity (PAK3 (human); compound 1.0 µM) was 78% and the residual activity ([5]; compound 1.0 µM) was 1%. It also gave a residual activity (PRKCQ (human); compound 1.0 µM) of 78%, a residual activity (PRKX (human); compound 1.0 µM) of 103% and a residual activity (PTK6 (human); compound 1.0 µM) of 105%. It also gave a residual activity (RPS6KA6 KD1 KD2 (human); compound 1.0 µM) of 12%, a residual activity (SGK2 (human); compound 1.0 µM) of 86% and a residual activity (SRPK1 (human); compound 1.0 µM) of 104%. The residual activity (SRPK2 (human); compound 1.0 µM) was 107%, the residual activity (SRPK3 (human); compound 1.0 µM) was 115% and the residual activity (STK11 (human); compound 1.0 µM) was 96%. For the same molecule, the residual activity (STK33 (human); compound 1.0 µM) was 41%, the residual activity (TAOK3 (human); compound 1.0 µM) was 104% and the residual activity (TSSK2 (human); compound 1.0 µM) was 106%. For the same molecule, the residual activity (VRK2 (human); compound 1.0 µM) was 111% and the residual activity (YES1 (human); compound 1.0 µM) was 63%.
